“And” between values parts separate entries of the source, which are not always exact repeats. Identical values can stand only once.

One assay is described as follows: AMA affinity for Zn2+. The class given is binding. The conditions noted are these: PAR-based competition assay, authors' reply to reviewer; read-out: Kd for Zn (typical drift).
A further assay concerns K. pneumoniae biofilm. The assay can be described thus: Polystyrene microtiter biofilm assay (crystal violet). It counts as cell-based, Klebsiella pneumoniae. The procedure: Biofilm assays to assess the effect of Zn-AMA were adapted from a previously described method. Overnight cultures of K. pneumoniae or S. aureus USA300 were diluted in sterile saline (NaCl, 0.9% w/v) to an OD600 of 0.1 and diluted 1/200 in either M9-Cas, or artificial urine. Two-fold dilutions of Zn-AMA were added to the cells in a 96-well round-bottom microtiter plate, and the cells were grown at 37 °C for 18 hours in a static incubator. […] The biofilms were washed three times with deionized water, air-dried, and stained with 0.1% crystal violet for 15 min. Excess crystal violet was removed, the plates were washed with deionized water three times, and they were air-dried for 1 hour. […] Experiments were performed in four replicates, and absorbance measurements were performed in a BioTek Synergy H1 plate reader.

Another assay concerns S. aureus biofilm. The description is as above. It counts as cell-based, Staphylococcus aureus USA300. As to conditions: artificial urine or M9. The procedure: Biofilm assays to assess the effect of Zn-AMA were adapted from a previously described method. Overnight cultures of K. pneumoniae or S. aureus USA300 were diluted in sterile saline (NaCl, 0.9% w/v) to an OD600 of 0.1 and diluted 1/200 in either M9-Cas, or artificial urine. Two-fold dilutions of Zn-AMA were added to the cells in a 96-well round-bottom microtiter plate, and the cells were grown at 37 °C for 18 hours in a static incubator. Following incubation, the microtiter plates were agitated on an orbital shaker (300 rpm, 2 min), the planktonic cells were transferred to a fresh plate, and their OD600 was quantified. The biofilms were washed three times with deionized water, air-dried, and stained with 0.1% crystal violet for 15 min. Excess crystal violet was removed, the plates were washed with deionized water three times, and they were air-dried for 1 hour. The crystal violet-stained biofilms were solubilized in 33% acetic acid (100 μL) for 5 min, and the absorbance (600 nm) was measured. Experiments were performed in four replicates, and absorbance measurements were performed in a BioTek Synergy H1 plate reader.

In the next assay the test system is Hyd-3. Put plainly: [NiFe] hydrogenase zymography. The conditions noted are these: 150 µM, E. coli, 100% H2. The class given is cell-based, Escherichia coli BW25113.
Assay [1] relates to K. pneumoniae urease activity (Ni2+ uptake). The assay can be described thus: Competition of Zn-AMA with Ni-(L-His)2 (urease-dependent pH). The class given is cell-based, Klebsiella pneumoniae.

Description for Hyd-3: As described for whole-cell hydrogenase assays, E. coli BW25113 cultures (2 mL) in eight-well cell culture plates were grown under anaerobic conditions. The cells were harvested by centrifugation, resuspended in PBS, and lysed by sonication. Cell debris was removed by centrifugation (21,000 × g, 5 min), and Triton X-100 was added to a final concentration of 1%.
[NiFe] hydrogenase zymograms were
performed using E. coli grown in LB-glucose supplemented with 0.5 µM NiCl2 for 24h at 37 °C under anaerobic conditions. The E. coli
Triton X-100 (5% v/v) solubilized membranes were
mg/mL benzyl viologen and 1 mg/mL tetrazolium chloride under 100% H2 gas.

With `N[C@@H](CN[C@@H](CN[C@@H](CC(=O)O)C(=O)O)C(=O)O)C(=O)O` [AMA, aspergillomarasmine A], in “AMA affinity for Zn2+”, the Kd lay in the range of 100 to 200 pM.
Take `N[C@@H](CN[C@@H](CN[C@@H](CC(=O)O)C(=O)O)C(=O)O)C(=O)O.[Zn+2]` [Zn-AMA]: the “Biofilm (A595), crystal violet” value in the assay on K. pneumoniae biofilm (1.56 μM, artificial urine) is 0.659 and 0.666 and 0.436 and 0.533; in the assay on K. pneumoniae biofilm (3.12 μM, artificial urine), 0.633 and 0.585 and 0.45 and 0.471. In addition, the “Planktonic (A595)” value is 0.141 and 0.142 and 0.148 and 0.16 in the assay with K. pneumoniae biofilm (1.56 μM, artificial urine); 0.147 and 0.142 and 0.13 and 0.155 in the assay with K. pneumoniae biofilm (3.12 μM, artificial urine); 0.194 and 0.11 and 0.126 and 0.129 in the assay with K. pneumoniae biofilm (6.2 μM, artificial urine); 0.177 and 0.124 and 0.113 and 0.167 in the assay on K. pneumoniae biofilm (12.5 μM, artificial urine); 0.165 and 0.136 and 0.151 and 0.152 with K. pneumoniae biofilm (25 μM, artificial urine); 0.165 and 0.152 and 0.157 and 0.154 in the assay with K. pneumoniae biofilm (50 μM, artificial urine). Further, the “Planktonic (A595)” value was 0.171 and 0.148 and 0.158 and 0.166 with K. pneumoniae biofilm (100 μM, artificial urine); 0.167 and 0.176 and 0.175 and 0.166 in the assay with K. pneumoniae biofilm (200 μM, artificial urine). Besides, the results for the “effect on biofilm production” value in the assay on K. pneumoniae biofilm (M9 minimal medium), with K. pneumoniae biofilm (artificial urine) and in the assay on S. aureus biofilm were “biofilms were unperturbed”, “completely suppress biofilm production” and “anti-biofilm activity was not observed”, respectively. Further, in the assay with Hyd-3, the “Hyd-3 activity by zymography” value is given as “Suppression of Hyd-3 activity”. The “pH of culture (Zn-AMA v.s. L-His)” value in assay [1] (Zn-AMA 6.25 μM + L-His 3.12 μM) was 7.4 and 7.43; in assay [1] (Zn-AMA 6.25 μM + L-His 6.25 μM), 7.74 and 7.71; in assay [1] (Zn-AMA 6.25 μM + L-His 12.5 μM), 7.97 and 8.09; in assay [1] (Zn-AMA 6.25 μM, L-His 0 μM), 6.53 and 6.52; in assay [1] (Zn-AMA 25 μM + L-His 3.12 μM), 6.81 and 6.82; in assay [1] (Zn-AMA 25 μM + L-His 6.25 μM), 7.1 and 7.22. Moreover, the “pH of culture (Zn-AMA v.s. L-His)” value in assay [1] (Zn-AMA 25 μM + L-His 12.5 μM) was 7.41 and 7.51; in assay [1] (Zn-AMA 25 μM, L-His 0 μM), 6.38 and 6.37.

For the origin of these results see article PMC11091072, “Targeting bacterial nickel transport with aspergillomarasmine A suppresses virulence-associated Ni-dependent enzymes” (Nature Communications, 2024).
